Entries after “also recorded” stand apart in the source; their conditions may differ.

A word on the fraction unbound: it is the share of the substance not bound to proteins or other matrix. A higher fraction unbound goes with much free substance.

The nature of data set [1]: Binding to mouse plasma protein.
Data set [2] has as its system developing vasculature in the zebrafish embryo. The experiment in a line: Vascular development in zebrafish embryos (confocal / time-lapse imaging of transgenic lines). The following applies: 0.1–0.3 μM in swimming water.
A short description of data set [3]: in vitro. The following applies: zebrafish, zebrafish embryo homogenate (1:20 in MilliQ water).
Data set [4] relates to zebrafish embryos. The experiment in a line: Zebrafish embryo lethality. The following applies: above a concentration of 1 μM. On the procedure: Similarly, DMSO solutions (100 μM) of infigratinib (BGJ398) or vatalanib (PTK/ZK) were diluted in fish water to achieve concentrations of 0.1–0.3 μM. The compounds were added to embryo fish water E3 (5 mM NaCl, 0.17 mM KCl, 0.33 mM CaCl2, 0.33 mM MgSO4, pH 7.0) at 8–10 hpf onwards, before the onset of endothelial cell specification, as previously described.

Where [5] appears, read: %PPB-Mouse (plasma protein binding).

The compound `CCN1CCN(c2ccc(Nc3cc(N(C)C(=O)Nc4c(Cl)c(OC)cc(OC)c4Cl)ncn3)cc2)CC1` [infigratinib] registered a free fraction (fraction unbound) in data set [1] (%Fu-PPB, free unbound) of 0.013. Moreover, in data set [1] (setting [5]), the fraction unbound is 0.013. Besides, in data set [2], the Anastomosis result is “Moderate/strong defects”, the Blood flow entry was “mild impediment of blood flow”, the Cell cycle result is “inhibited cell cycle progression” and the Cell junctions result is reported as “Mild defects”. Besides, in data set [2], the ISV sprouting angiogenesis result is recorded as “did not have any effect”, the “ISV-Aorta Connections” value is “Moderate defects” and the Lumenization entry is listed as “Mild defects”. Moreover, in data set [2] (listed as Infigratinib), the Blood flow result is “Mild defects”, the Cell cycle result is reported as “Moderate defects” and the ISV sprouting angiogenesis entry is given as “No defects”. In data set [3], this compound showed a fraction unbound at 20 h, 1 μM of 0.0497 ± 0.0082.

On to `Clc1ccc(Nc2nnc(Cc3ccncc3)c3ccccc23)cc1` [vatalanib], for which, in data set [1] (%Fu-PPB, free unbound), the fraction unbound turned out to be 0.041 ± 0.0018. This compound also showed a fraction unbound in data set [1] (setting [5]) of 0.0413. Besides, in data set [2], the ISV sprouting angiogenesis entry was “dramatically reduced”, the “ISV-Aorta Connections” value was “No defects” and the Lumenization result is listed as “Moderate defects”. In data set [2] (listed as Vatalanib), the Blood flow entry is on record as “dramatic defects in blood vessel function; also recorded: Moderate defects” and the ISV sprouting angiogenesis result is listed as “Strong defects”. This compound came in with a fraction unbound at 20 h, 1 μM in data set [3] of 0.0995 ± 0.0131. In addition, the embryo lethality in data set [4] is recorded as 80–90%.

Source of the values: publication PMC7824571, “Probing the Effects of the FGFR-Inhibitor Derazantinib on Vascular Development in Zebrafish Embryos” (Pharmaceuticals, 2020).
